Legend:
C57BL/6J female mice = test: Leukocyte counts in thymus, blood, spleen and lymph nodes after oral administration in drinking water; assay type: in vivo, mouse; settings: 1.8 mg/l in drinking water
Procedure: Next, 7- to 8-week-old C57BL/6J female mice were orally administered with AD2900 mixed in drinking water in different dosages (1.8, 2.7, or 3.6 mg/l) for 2 days (Figure 4A) or 7 days (Figure 4B); FTY720 was used as a positive control. In the 7-day experiment, the water was replaced on Day 3 with fresh water containing the same concentration of analog. At the end of the experiment, blood, spleen, inguinal lymph nodes, and thymus were obtained from each animal and the number of leukocytes was evaluated.
Figure 4 AD2900 treatment alters the distribution of leukocytes in the thymus, blood, spleen, and peripheral lymph nodes in mice C57BL/6 female mice were orally administered with 1.8 mg/l AD2900 in their drinking water for 2 days (A) or 7 days (B), and FTY720 (1.8 mg/l) was used as a positive control. Leukocytes from the thymus, blood, spleen, and peripheral lymph nodes (pLNs) were collected and counted. All the significances are compared to untreated healthy mice. Results summarize four independent experiments in figure (A) and two independent experiments in figure (B). n = 4–7 mice per group in each experiment. Results of Student’s t-test:*(P < 0.05, two-tailed test), ** (P < 0.01, two-tailed test), *** (P < 0.001, two-tailed test), **** (P < 0.0001, two-tailed test).
(§1) C57BL/6 female mice aged 7–8 weeks were obtained from Harlan Laboratories (Jerusalem, Israel). The animal study was conducted under appropriate conditions and was approved by the Institutional Animal Care and Use Committee of the Hebrew University of Jerusalem in accordance with the national laws and regulations for the protection of animals. AD2900 was dissolved in 10% BSA (MP Biomedicals, CA, USA) in DDW at 1 mg/ml and then further diluted in 200 ml water to get final concentrations at 1.8, 2.7, or 3.6 mg/l. AD2900 and FTY720 were supplied ad libitum to the mice for 2 days or 7 days. At the end of the experiment, blood was collected, and the mice were sacrificed and tissues (lymph nodes and spleen) were harvested.
Murine blood samples, collected in tubes coated with EDTA (Grelner bio-one, Germany), were counted by a Mindray veterinary hematology Analyzer (Mindray, China). Single cell suspensions of lymph nodes and spleen were made in 1.5 ml of PBS. Cell counts were determined from these suspensions, yielding results in thousands of cells per microliter (μl).

C57BL/6 mice = test: S1P1-positive T-cell population in vivo, FACS; parameters: species or system mouse; settings: for increase of S1P1-positive T cells in the blood, of normal expression levels / increase of S1P1 population, spleen T cells / decrease of S1P1 population in the lymph nodes: 2-day treatment
Excerpt: The S1P gradient is a crucial factor for lymphocytes to egress from lymphoid tissues and re-enter the circulation. […] To identify whether the effect of AD2900 on T-cell localization may be mediated by an influence on S1P1 and CCR7 expression, we tested the percentage of S1P1- and CCR7-positive T-cell populations in the blood, spleen, and lymph node in each mouse after a 2-day treatment with AD2900. The percentage of cells expressing S1P1 or CCR7 on their cell surface was detected by FACS analysis and was calculated as % of expressing population in non-treated animals. […] AD2900 elevates the S1P1-expressing population in the blood and spleen, whereas it reduces this population in the lymph nodes. […] In the lymph nodes, the […] population was not affected by AD2900 treatment (Figure 7F).
Figure 7 The influence of AD2900 on S1P1- and CCR7-positive T-cell populations in blood, spleen, and peripheral lymph nodes C57BL/6 mice were orally administered with 1.8, 2.7, and 3.6 mg/l AD2900 or 1.8 mg/l FTY720 for 2 days, as shown in Figure 4. Leukocytes from blood, spleen, and pLNs were collected and stained with CD3e and S1P1 or CCR7 fluorescent antibodies and then analyzed by FACS analysis. The percentages of S1P1+ CD3e+ T cells from blood (A), spleen (B), and pLNs (C) are shown. The percentages of CCR7+ CD3e+ T cells from blood (D), spleen (E), and pLNs (F) are shown. All the significances are compared to untreated healthy mice. Results summarize at least three independent experiments. Results of Student’s t-test:*(P < 0.05, two-tailed test), ** (P < 0.01, two-tailed test), *** (P < 0.001, two-tailed test), **** (P < 0.0001, two-tailed test).
as §1

Structure (SMILES)	lymph node leukocyte count (C57BL/6J female mice; 2-day and 7-day treatments)	WBC and splenocyte counts (C57BL/6J female mice; both 2-day and 7-day treatments)	effects on the S1P1 population in murine blood, spleen, and lymph nodes (C57BL/6 mice; 1.8 mg/l, 2 days)	increase of splenocyte counts (C57BL/6J female mice; 2-day treatment)	increase of thymus WBC count (C57BL/6J female mice; 2-day treatment)	increase of mice WBC count (C57BL/6J female mice; 7-day treatment)	increase of splenocyte counts (C57BL/6J female mice; 7-day treatment)	reduction of the number of leukocytes in the lymph nodes, of that of the control (C57BL/6J female mice; 7-day treatment)	increase of S1P1-positive T cells in the blood, of normal expression levels (C57BL/6 mice; 1.8 mg/l)	increase of S1P1 population, spleen T cells (C57BL/6 mice; 1.8 mg/l)	decrease of S1P1 population in the lymph nodes (C57BL/6 mice; 2.7 mg/l)	increase of S1P1-positive T cells in the blood, of normal expression levels (C57BL/6 mice; 2.7 mg/l)	increase of S1P1 population, spleen T cells (C57BL/6 mice; 2.7 mg/l)	decrease of S1P1 population in the lymph nodes (C57BL/6 mice; 3.6 mg/l)	increase of S1P1-positive T cells in the blood, of normal expression levels (C57BL/6 mice; 3.6 mg/l)
CCCCCCCCc1ccc(CCC(N)(CO)CO)cc1 [FTY720, Fingolimod, reference compound]	only minor effects	dramatically reduced	did not demonstrate any effects												
CCCCCCCCCCCCCCCCNC(CO)(CO)CO [AD2900]				33% ± 9%	25% ± 8.2%	23% ± 7%	20% ± 7%	18% ± 4%	20% ± 4%	12% ± 5%	12% ± 3%	16% ± 5%	31% ± 5%	18% ± 11%	18% ± 4%
